Source: US11448964B2, “Coating compositions for use with an overcoated photoresist” (Rohm and Haas Electronic Materials Korea Ltd., priority 2016, dated 2022)

Assay: Solubility of thermal acid generators in organic solvents (super-saturated solution, shaken 16 hours, filtered, solid content by Thermal Gravimetric Analysis)
Type: physicochemical
Details: room temperature, TGA; for Solubility in HBM (solid content of filtered solution): 2-hydroxyisobutyric acid methyl ester (HBM); for Solubility in EL (solid content of filtered solution): ethyl lactate (EL); for Solubility in PGME (solid content of filtered solution): propylene glycol methyl ether (PGME)

For `Cc1ccccn1` [Example 1, 2-methylpyridin-1-ium 4-methylbenzenesulfonate], which “Solubility in HBM (solid content of filtered solution)” value is on record?
The value was 20 wt. %.

What about the “Solubility in EL (solid content of filtered solution)” value of the same compound?
Its value is 29 wt. %.

And the “Solubility in PGME (solid content of filtered solution)” value?
The value was 27 wt. %.

What does the source list for `COc1ccncc1` [Example 2, 4-methoxypyridin-1-ium 4-methylbenzenesulfonate]?
Solubility in HBM (solid content of filtered solution): 18 wt. %; Solubility in EL (solid content of filtered solution): 32 wt. %; Solubility in PGME (solid content of filtered solution): 26 wt. %
